The subject of this experiment is Guinea Pig Rhinitis Model. The experiment in a line: Guinea pig rhinitis model (OVA, respiratory resistance). In kind it is in vivo, Harley guinea pig. The following applies: 10 mg intranasally before induction by the antigen; 10 minutes to 8 hours after induction; Fig. 3. The method, then:
Cyclophosphamide (SIGMA) was dissolved in physiological saline to a concentration of 25 mg/ml, and the solution was intraperitoneally administered to each Harley guinea pig (male, 2 weeks old, JAPAN SLC) at a dose of 50 mg/kg on DAY-0. Equivolume of OVA (2.0 mg/ml) dissolved in physiological saline and 12 ml of aqueous 9% AlK(SO4)2 solution were mixed, and then 10% aqueous Na2CO3 solution was added thereto to adjust the pH to 6.5, thereby obtaining Al(OH)3 gel (OVA 500 µg/ml) on which OVA was adsorbed. The obtained product was centrifuged and the precipitated gel was washed with PBS(-), followed by addition of Bordetella pertussis cell suspension (WAKO PURE CHEMICALS). The OVA concentration was adjusted to 100 µg/ml, and 1 ml (100 µg) of the resulting product was intraperitoneally administered to each guinea pig. On DAY-22, each mice was made to inhale 1% OVA dissolved in physiological saline for 10 minutes. […] The increase in the respiratory resistance from 10 minutes after the induction to 8 hours after the induction was measured by a respiratory resistance-measuring apparatus (body plethysmograph method; SHIZUME MEDICAL), and the result was expressed in terms of the ratio of the measured resistance based on the respiratory resistance measured before the induction by the antigen. […]

Regarding `CC(C)(C)CC(=O)N[C@@H](CSSC[C@H](NC(=O)CC(C)(C)C)C(=O)O)C(=O)O` [Example 140, 3-((2(R)-carboxy-2(R)-(3,3-dimethylbutanoylamino)ethyl)disulfanyl)-2(R)-(3,3-dimethylbutanoylamino)propionic acid], the “increase in the respiratory resistance” value is on record as “inhibits”.

These data come from patent publication EP1209147A1, “CARBOXYLIC ACID DERIVATIVES AND ADHESION MOLECULE INHIBITORS CONTAINING THE SAME AS THE ACTIVE INGREDIENT” (TORAY INDUSTRIES, INC., priority 1999, dated 2001).
